Publication PMC5936891, “A focused library synthesis and cytotoxicity of quinones derived from the natural product bolinaquinone” (Royal Society Open Science, 2018)

Key:
HT29 (colon carcinoma) = test: MTT in vitro growth inhibition assay, HT29; format: cell-based; settings: Homo sapiens; for inhibition at 25 µM: HT-29, 25 µM of drug, 72 h, read-out: Percentage of Cell Growth Inhibition HT29; for GI50: HT-29, 72 h drug exposure
Excerpt: (§1) With the desired bolinaquinone analogues 12–43 in hand, we examined their cytotoxicity against a panel of 11 tumour cell lines: HT29 (colon carcinoma), U87 and SJ-G2 (glioblastoma), MCF-7 (breast carcinoma), A2780 (ovarian carcinoma), H460 (lung carcinoma), A431 (skin carcinoma), Du145 (prostate carcinoma), BE2-C (neuroblastoma), MIA (pancreatic carcinoma), SMA (spontaneous murine astrocytoma) and a normal breast cell line (MCF10A). The inclusion of the MCF-10A cell line allowed a determination of a crude measure of relative toxicity while noting that the ultimate arbiter of toxicity requires in vivo evaluation. All analogues were initially screened at a 25 µM drug concentration.
(§2) Stock solutions were prepared as follows and stored at −20°C: drugs were stored as 40 mM solutions in DMSO. All cell lines were cultured in a humidified atmosphere 5% CO2 at 37°C. The cancer cell lines were maintained in Dulbecco's modified Eagle's medium (DMEM) (Trace Biosciences, Australia) supplemented with 10% fetal bovine serum, 10 mM sodium bicarbonate, penicillin (100 IU ml^−1), streptomycin (100 µg ml^−1) and glutamine (4 mM). The non-cancer MCF10A cell line was cultured in DMEM:F12 (1 : 1) cell culture media, 5% heat-inactivated horse serum, supplemented with penicillin (50 IU ml^−1), streptomycin (50 µg ml^−1), 20 mM Hepes, L-glutamine (2 mM), epidermal growth factor (20 ng ml^−1), hydrocortisone (500 ng ml^−1), cholera toxin (100 ng ml^−1) and insulin (10 ug ml^−1).
(§3) Cells in logarithmic growth were transferred to 96-well plates. Cytotoxicity was determined by plating cells in duplicate in 100 µl medium at a density of 2500–4000 cells per well. On day 0 (24 h after plating), when the cells were in logarithmic growth, 100 μl of medium with or without the test agent was added to each well. After 72 h, drug exposure growth inhibitory effects were evaluated using the MTT (3-[4,5-dimethylthiazol-2-yl]-2,5-diphenyl-tetrazolium bromide) assay and the absorbance read at 540 nm. Percentage growth inhibition was determined at a fixed drug concentration of 25 µM. A value of 100% is indicative of complete cell growth inhibition. Those analogues showing appreciable percentage growth inhibition underwent further dose–response analysis allowing for the calculation of a GI50 value. This value is the drug concentration at which cell growth is 50% inhibited based on the difference between the optical density values on day 0 and those at the end of drug exposure.

U87 (glioblastoma) = test: MTT in vitro growth inhibition assay, U87; format: cell-based; settings: for inhibition at 25 µM: 25 µM of drug, 72 h, read-out: Percentage of Cell Growth Inhibition U87; for GI50: 72 h drug exposure
Excerpt: as §1, §2, §3

MCF-7 (breast carcinoma) = test: MTT in vitro growth inhibition assay, MCF-7; format: cell-based; settings: Homo sapiens; for inhibition at 25 µM: MCF7, 25 µM of drug, 72 h, read-out: Percentage of Cell Growth Inhibition MCF-7; for GI50: MCF7, 72 h drug exposure
Excerpt: as §1, §2, §3

[1] = test system: A2780 (ovarian carcinoma); test: MTT in vitro growth inhibition assay, A2780; format: cell-based; settings: Homo sapiens; for inhibition at 25 µM: 25 µM of drug, 72 h, read-out: Percentage of Cell Growth Inhibition A2780; for GI50: 72 h drug exposure
Excerpt: as §1, §2, §3

H460 (lung carcinoma) = test: MTT in vitro growth inhibition assay, H460; format: cell-based; settings: Homo sapiens; for inhibition at 25 µM: NCI-H460, 25 µM of drug, 72 h, read-out: Percentage of Cell Growth Inhibition H460; for GI50: NCI-H460, 72 h drug exposure
Excerpt: as §1, §2, §3

A431 (skin carcinoma) = test: MTT in vitro growth inhibition assay, A431; format: cell-based; settings: Homo sapiens; for inhibition at 25 µM: A-431, 25 µM of drug, 72 h, read-out: Percentage of Cell Growth Inhibition A431; for GI50: A-431, 72 h, 72 h drug exposure
Excerpt: as §1, §2, §3

[2] = test system: Du145 (prostate carcinoma); test: MTT in vitro growth inhibition assay, Du145; format: cell-based; settings: Homo sapiens; for inhibition at 25 µM: DU-145, 25 µM of drug, 72 h, read-out: Percentage of Cell Growth Inhibition Du145; for GI50: DU-145, 72 h, 72 h drug exposure
Excerpt: as §1, §2, §3

BE2-C (neuroblastoma) = test: MTT in vitro growth inhibition assay, BE2-C; format: cell-based; settings: Homo sapiens, BE(2)-C, 72 h; for inhibition at 25 µM: 25 µM of drug, read-out: Percentage of Cell Growth Inhibition BE2-C; for GI50: 72 h drug exposure
Excerpt: as §1, §2, §3

SJ-G2 (glioblastoma) = test: MTT in vitro growth inhibition assay, SJ-G2; format: cell-based; settings: for inhibition at 25 µM: 25 µM of drug, 72 h, read-out: Percentage of Cell Growth Inhibition SJ-G2; for GI50: 72 h drug exposure
Excerpt: as §1, §2, §3

[3] = test system: MIA (pancreatic carcinoma); test: MTT in vitro growth inhibition assay, MIA; format: cell-based; settings: for inhibition at 25 µM: 25 µM of drug, 72 h, read-out: Percentage of Cell Growth Inhibition MIA; for GI50: 72 h drug exposure
Excerpt: as §1, §2, §3

[4] = test system: SMA (spontaneous murine astrocytoma); test: MTT in vitro growth inhibition assay, SMA; format: cell-based; settings: Mus musculus; for inhibition at 25 µM: 25 µM of drug, 72 h, read-out: Percentage of Cell Growth Inhibition SMA; for GI50: 72 h drug exposure
Excerpt: as §1, §2, §3

[5] = test system: MCF10A (normal breast cell line); test: MTT in vitro growth inhibition assay, MCF10A; format: cell-based; settings: Homo sapiens, MCF-10A; for inhibition at 25 µM: 25 µM of drug, 72 h, read-out: Percentage of Cell Growth Inhibition MCF10A; for GI50: normal breast cell line, 72 h drug exposure
Excerpt: as §1, §2, §3

| Compound | inhibition at 25 µM (HT29 (colon carcinoma)) [%] | inhibition at 25 µM (U87 (glioblastoma)) [%] | inhibition at 25 µM (MCF-7 (breast carcinoma)) [%] | GI50 (MCF-7 (breast carcinoma)) [µM] | inhibition at 25 µM [1] [%] | GI50 [1] [µM] | inhibition at 25 µM (H460 (lung carcinoma)) [%] | inhibition at 25 µM (A431 (skin carcinoma)) [%] | inhibition at 25 µM [2] [%] | inhibition at 25 µM (BE2-C (neuroblastoma)) [%] | GI50 (BE2-C (neuroblastoma)) [µM] | inhibition at 25 µM (SJ-G2 (glioblastoma)) [%] | GI50 (SJ-G2 (glioblastoma)) [µM] | inhibition at 25 µM [3] [%] | inhibition at 25 µM [4] [%] | GI50 [4] [µM] | inhibition at 25 µM [5] [%] | GI50 [5] [µM] | melting point [°C] | GI50 (HT29 (colon carcinoma)) [µM] | further results |
| --- | --- | --- | --- | --- | --- | --- | --- | --- | --- | --- | --- | --- | --- | --- | --- | --- | --- | --- | --- | --- | --- |
| COC1=CC(=O)C(OC)=C(c2ccccc2-c2ccccc2)C1=O [compound 29, 3-Biphenyl-2-yl-2,5-dimethoxycyclohexa-2,5-diene-1,4-dione] | 15 ± 1 | 14 ± 4 | 27 ± 5 | 28 ± 2.6 | 77 ± 5 | 17 ± 1.2 | 10 ± 4 | 14 ± 3 | 10 ± 2 | > 100 | 11 | 38 ± 9 | 31 ± 0.58 | < 10 | 72 ± 9 | 20 ± 1.7 | 21 ± 8 | 36 ± 3.8 | 186 to 188 | – | – |
| COC1=C(c2ccccc2)C(=O)C(OC)=C(c2ccccc2)C1=O [compound 30, 2,5-Dimethoxy-3,6-diphenylcyclohexa-2,5-diene-1,4-dione] | 73 ± 4 | 52 ± 5 | > 100 | 7 ± 0.98 | > 100 | 5.9 | 26 ± 8 | 59 ± 6 | 35 ± 5 | > 100 | 7 ± 0.1 | > 100 | 12 ± 0.9 | 63 ± 5 | > 100 | 6.2 ± 0.3 | > 100 | 8.9 ± 1.6 | 150 to 152 | 16 ± 1.2 | GI50 (U87 (glioblastoma)): 30 ± 1.8 µM; GI50 (H460 (lung carcinoma)): > 50 µM; GI50 (A431 (skin carcinoma)): > 50 µM; GI50 [2]: > 50 µM; GI50 [3]: 20 ± 2 µM |
| CCCCc1ccc(C2=C(OC)C(=O)C(c3ccc(CCCC)cc3)=C(OC)C2=O)cc1 [compound 31, 2,5-Bis(4-butylphenyl)-3,6-dimethoxycyclohexa-2,5-diene-1,4-dione] | 73 ± 3 | 53 ± 3 | 73 ± 5 | – | 55 ± 9 | – | 52 ± 9 | 75 ± 2 | 83 ± 2 | 68 ± 3 | – | 56 ± 6 | – | 72 ± 2 | 54 ± 4 | – | 66 ± 2 | – | 177 to 179 | – | – |
| COC1=C(c2ccccc2)C(=O)C(OC)=C(c2cccc3ccccc23)C1=O [compound 32, 2,5-Dimethoxy-3-(naphthalen-1-yl)-6-phenylcyclohexa-2,5-diene-1,4-dione] | 15 ± 4 | 19 ± 2 | 22 ± 2 | – | 60 ± 17 | – | 20 ± 8 | 17 ± 2 | 18 ± 4 | 27 ± 15 | – | 19 ± 3 | – | 13 ± 1 | 58 ± 13 | – | 58 ± 15 | – | 168 to 170 | – | – |
| COC1=C(c2ccc3ccccc3c2)C(=O)C(OC)=C(c2cccc3ccccc23)C1=O [compound 33, 2,5-Dimethoxy-3-(naphthalene-1-yl)-6-(naphthalene-3-yl)cyclohexa-2,5-diene-2,5-diene-1,4-dione] | 53 ± 2 | 43 ± 11 | > 100 | 5.6 ± 0.7 | 98 ± 0.5 | 6.9 ± 1.2 | 45 ± 2 | 57 ± 3 | 40 ± 1 | 81 ± 1 | 12 ± 0.9 | 92 ± 5 | 14 ± 1.9 | 72 ± 2 | 81 ± 10 | 11 ± 0.33 | 86 ± 3 | 13 ± 2.2 | 163 to 165 | 23 ± 1.2 | GI50 (U87 (glioblastoma)): 26 ± 2.1 µM; GI50 (H460 (lung carcinoma)): 28 ± 2.7 µM; GI50 (A431 (skin carcinoma)): 23 ± 3.4 µM; GI50 [2]: 31 µM; GI50 [3]: 15 ± 0.9 µM |
| COC1=C(c2ccc3ccccc3c2)C(=O)C(OC)=C(c2ccc(OC)cc2OC)C1=O [compound 34, 2,5-Dimethoxy-3-(2,4-dimethoxyphenyl)-6-(naphthalene-3-yl)cyclohexa-2,5-diene-1,4-dione] | 82 ± 2 | 61 ± 4 | > 100 | 6.2 ± 0.31 | 100 ± 1 | 6.1 ± 0.03 | 49 ± 9 | 85 ± 2 | 41 ± 3 | > 100 | 9.6 ± 0.5 | 83 ± 2 | 16 | 70 ± 1 | 98 ± 1 | 9.7 ± 0.6 | 99 ± 2 | 12 ± 2.4 | 159 to 161 | 10.2 ± 0.3 | GI50 (U87 (glioblastoma)): 22 ± 2 µM; GI50 (H460 (lung carcinoma)): 35 ± 6.9 µM; GI50 (A431 (skin carcinoma)): 15 ± 1 µM; GI50 [2]: 27 ± 2.5 µM; GI50 [3]: 18 ± 0.33 µM |
